Measurements taken from publication PMC10269561, “Absence of Clinically Meaningful Drug-Drug Interactions with Rezafungin: Outcome of Investigations” (Microbiology Spectrum, 2023).
pIC50: −log10 of the molar value. Numbered stars: 1 amine (or outer) side, 2 acyl side, 3 side chain; on linkers, the order of the positions; unused ones are H or OH. Bridge positions count the residues as written; N and C are the ends. Square brackets hold non-standard residues; d marks the D form. Peptide text beside a SMILES is read from it. * marks the point of attachment. Orn(4R-OH,5R-OCH2CH2NMe3+) = C[N+](C)(C)CCO[C@@H](N[*:3])[C@H](O)C[C@H](N[*:1])C(=O)[*:2]; pTerphenylCO(4''-OnC5H11) = CCCCCOc1ccc(-c2ccc(-c3ccc(C(=O)*)cc3)cc2)cc1; hTyr(3S-OH,4S-OH) = N[C@H](C(=O)O)[C@H](O)[C@@H](O)c1ccc(O)cc1; Pro(3S-OH,4S-Me) = C[C@H]1CN[C@H](C(=O)O)[C@H]1O; Hyp = O=C(O)[C@@H]1C[C@@H](O)CN1

Tests used:
BCRP = BCRP (Homo sapiens, UniProt Q9UNQ0); assay: NC-160 substrate interaction, BCRP; assay type: in vitro ADME; settings: efflux (ABC) transporter
From the text: (§1) Microbiology Spectrum Supplementary materials
(§2) Table S 4Summary of initial in vitro assessments […]
(§3) whether rezafungin can induce CYP isoforms 1A2, 2B6, or 3A4. mRNA expression) of CYP1A2 and CYP2B6, and, in the case of […]
(§4) Abbreviations: ABC = ATP binding cassette; BCRP = breast cancer resistance protein; BSEP = bile salt export pump; CYP = cytochrome P450; MATE = multidrug and toxic compound extrusion; MDCK = Madin-Darby canine kidney; MDR = multidrug resistance protein; mRNA = messenger ribonucleic acid; OAT = organic anion transporter; OATP = organic anion transporter protein; OCT – organic cation transporter; OCTN = organic cation transporter novel; P-gp = P-glycoprotein; SLC = solute carrier.

OCT1 [1] = biological target: T1, OCT1 (Homo sapiens, UniProt O15245); assay: NC-152 transporter inhibition, OCT1; assay type: in vitro ADME
T1 sequence (O15245 1-554): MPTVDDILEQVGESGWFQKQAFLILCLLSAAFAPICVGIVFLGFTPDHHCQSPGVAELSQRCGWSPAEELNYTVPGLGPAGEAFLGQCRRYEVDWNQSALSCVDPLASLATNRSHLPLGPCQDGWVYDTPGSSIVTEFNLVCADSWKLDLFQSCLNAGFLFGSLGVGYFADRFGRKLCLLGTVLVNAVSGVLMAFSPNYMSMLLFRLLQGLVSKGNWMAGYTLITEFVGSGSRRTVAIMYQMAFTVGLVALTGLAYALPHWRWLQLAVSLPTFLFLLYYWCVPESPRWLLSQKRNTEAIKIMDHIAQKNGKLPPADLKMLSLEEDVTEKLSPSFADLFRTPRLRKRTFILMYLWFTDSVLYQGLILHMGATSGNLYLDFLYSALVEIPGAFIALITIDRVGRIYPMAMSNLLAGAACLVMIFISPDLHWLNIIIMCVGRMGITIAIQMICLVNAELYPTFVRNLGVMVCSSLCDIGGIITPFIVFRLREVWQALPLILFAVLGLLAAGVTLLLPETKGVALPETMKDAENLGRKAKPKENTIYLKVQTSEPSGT
From the text: (§5) Abbreviations: ABC = ATP binding cassette; BCRP = breast cancer resistance protein; BSEP = bile salt export pump; CYP = cytochrome P450; MATE =
(§6) multidrug and toxic compound extrusion; MDCK = Madin-Darby canine kidney; MDR = multidrug resistance protein; mRNA = messenger ribonucleic acid;
(§7) OAT = organic anion transporter; OATP = organic anion transporter protein; OCT – organic cation transporter; OCTN = organic cation transporter novel; P-gp =
(§8) P-glycoprotein; SLC = solute carrier.

human OAT3 = human OAT3 (Homo sapiens, UniProt Q8TCC7); assay: NC-152 transporter inhibition, OAT3; assay type: in vitro ADME; settings: in vitro cell test system
human OAT3, sequence (Q8TCC7 whole entry): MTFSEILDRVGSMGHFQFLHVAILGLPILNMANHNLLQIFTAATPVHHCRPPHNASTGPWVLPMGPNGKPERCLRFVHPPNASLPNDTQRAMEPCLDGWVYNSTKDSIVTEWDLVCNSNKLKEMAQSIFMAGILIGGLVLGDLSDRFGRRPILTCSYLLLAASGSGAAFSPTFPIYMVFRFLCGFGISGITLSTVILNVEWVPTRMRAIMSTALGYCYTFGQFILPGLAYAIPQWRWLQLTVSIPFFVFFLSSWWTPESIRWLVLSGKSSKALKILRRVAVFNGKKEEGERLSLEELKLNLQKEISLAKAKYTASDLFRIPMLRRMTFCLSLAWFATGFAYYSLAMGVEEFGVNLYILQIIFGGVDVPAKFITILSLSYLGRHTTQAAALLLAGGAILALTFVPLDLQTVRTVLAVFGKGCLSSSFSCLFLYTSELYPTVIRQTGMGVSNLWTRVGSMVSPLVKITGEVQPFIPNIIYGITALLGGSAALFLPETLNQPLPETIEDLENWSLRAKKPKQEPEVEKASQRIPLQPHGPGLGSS
From the text: as §1, §2, §3, §4

[2] = Study 2 safety and tolerability (TEAEs)
Method: After screening, subjects were admitted to the CRU on day −17 (prior to the first rezafungin dose) and were discharged on day 22. Rezafungin was dosed via i.v. infusion over 1 h at 400 mg on day 1 and 200 mg on day 8 and day 15. The oral drugs to be tested for interactions were each administered twice on a schedule designed to allow washout between doses: once alone and once while receiving rezafungin (Fig. 4B). The total duration of treatment was approximately 84 days, which included 45 days of screening and 39 days of treatment in the CRU.
In both studies, the safety population included all subjects who received any amount of the study drug. In study 1, the rezafungin safety population included all subjects who received any amount of rezafungin. Safety assessments included vital signs (temperature, heart rate, blood pressure, and respiratory rate), safety laboratory evaluations (hematology assessment, serum chemistry panel, and urinalysis), physical examinations (complete and symptom directed), and EKGs.
as §1
Abbreviations: TEAE = treatment-emergent adverse event.
N = number of subjects in the safety population; n = number of subjects in a sample.
Notes: Each TEAE was counted only once for each subject within each System Organ Class and Preferred Term.

CYP3A4 [3] = biological target: T2, CYP3A4 (Homo sapiens, UniProt P08684)
T2 sequence (P08684 whole entry): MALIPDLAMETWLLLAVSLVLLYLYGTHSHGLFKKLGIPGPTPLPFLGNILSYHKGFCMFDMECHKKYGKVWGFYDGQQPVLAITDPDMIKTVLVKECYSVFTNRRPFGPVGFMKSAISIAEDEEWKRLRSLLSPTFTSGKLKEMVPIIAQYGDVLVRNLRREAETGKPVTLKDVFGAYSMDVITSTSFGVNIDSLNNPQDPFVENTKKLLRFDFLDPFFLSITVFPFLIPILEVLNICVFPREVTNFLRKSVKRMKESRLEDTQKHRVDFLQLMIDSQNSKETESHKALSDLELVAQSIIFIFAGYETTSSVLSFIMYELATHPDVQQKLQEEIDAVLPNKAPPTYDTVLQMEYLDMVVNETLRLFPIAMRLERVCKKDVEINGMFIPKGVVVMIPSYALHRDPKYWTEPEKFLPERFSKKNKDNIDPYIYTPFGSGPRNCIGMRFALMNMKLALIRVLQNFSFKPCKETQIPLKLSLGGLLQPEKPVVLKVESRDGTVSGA
From the text: as §5, §6, §7, §8

OCT1 [4] = biological target: T1, OCT1; assay: NC-160 substrate interaction, OCT1; assay type: in vitro ADME; settings: uptake SLC transporter
From the text: as §1, §2, §3, §4

human MATE2-K = human MATE2-K (Homo sapiens, UniProt Q86VL8); assay: NC-152 transporter inhibition, MATE2-K; assay type: in vitro ADME; settings: in vitro cell test system
From the text: as §1, §2, §3, §4

[5] = cited from earlier work
From the text: Rezafungin is a novel echinocandin currently in development for the treatment of candidemia and invasive candidiasis as well as for prophylaxis against fungal diseases caused by Candida, Aspergillus, and Pneumocystis species in people undergoing allogeneic blood and marrow transplantation ([33][–][35]). […] It has als ...

MDR1 = MDR1 (Homo sapiens, UniProt P08183); assay: NC-160 substrate interaction, MDR1; assay type: in vitro ADME; settings: efflux (ABC) transporter
From the text: as §1, §2, §3, §4

CYP3A4 [6] = biological target: T2, CYP3A4; settings: human liver microsomes; midazolam and testosterone as substrates; 0.1 to 25 μM; NC-153
From the text: as §1, §2, §3, §4

CYP1A2 = CYP1A2 (Homo sapiens, UniProt P05177); settings: human liver microsomes; 0.1 to 25 μM; NC-153
From the text: as §1, §2, §3, §4

CYP2B6 = CYP2B6 (Homo sapiens, UniProt P20813); settings: human liver microsomes; 0.1 to 25 μM; NC-153
CYP2B6, sequence (P20813 whole entry): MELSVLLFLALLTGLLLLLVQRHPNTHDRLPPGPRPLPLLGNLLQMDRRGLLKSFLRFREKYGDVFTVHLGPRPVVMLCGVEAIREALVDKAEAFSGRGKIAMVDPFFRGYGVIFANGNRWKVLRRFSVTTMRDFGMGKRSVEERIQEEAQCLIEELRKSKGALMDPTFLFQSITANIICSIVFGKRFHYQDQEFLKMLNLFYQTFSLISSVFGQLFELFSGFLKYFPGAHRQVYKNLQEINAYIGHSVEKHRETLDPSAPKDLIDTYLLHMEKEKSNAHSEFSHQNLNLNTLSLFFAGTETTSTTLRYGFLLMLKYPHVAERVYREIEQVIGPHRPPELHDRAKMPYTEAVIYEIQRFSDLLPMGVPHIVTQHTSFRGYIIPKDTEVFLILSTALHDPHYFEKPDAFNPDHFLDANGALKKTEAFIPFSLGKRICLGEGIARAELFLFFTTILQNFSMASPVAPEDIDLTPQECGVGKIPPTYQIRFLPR
From the text: as §1, §2, §3, §4

human OAT1 = human OAT1 (Homo sapiens, UniProt Q4U2R8); assay: NC-152 transporter inhibition, OAT1; assay type: in vitro ADME; settings: in vitro cell test system
From the text: as §1, §2, §3, §4

human OATP1B1 = human OATP1B1 (Homo sapiens, UniProt Q9Y6L6); assay: NC-152 transporter inhibition, OATP1B1; assay type: in vitro ADME; settings: in vitro cell test system
From the text: as §1, §2, §3, §4

BSEP = BSEP (Homo sapiens, UniProt O95342); assay: NC-152 BSEP inhibition in membrane vesicles; assay type: in vitro ADME
BSEP, sequence (O95342 whole entry): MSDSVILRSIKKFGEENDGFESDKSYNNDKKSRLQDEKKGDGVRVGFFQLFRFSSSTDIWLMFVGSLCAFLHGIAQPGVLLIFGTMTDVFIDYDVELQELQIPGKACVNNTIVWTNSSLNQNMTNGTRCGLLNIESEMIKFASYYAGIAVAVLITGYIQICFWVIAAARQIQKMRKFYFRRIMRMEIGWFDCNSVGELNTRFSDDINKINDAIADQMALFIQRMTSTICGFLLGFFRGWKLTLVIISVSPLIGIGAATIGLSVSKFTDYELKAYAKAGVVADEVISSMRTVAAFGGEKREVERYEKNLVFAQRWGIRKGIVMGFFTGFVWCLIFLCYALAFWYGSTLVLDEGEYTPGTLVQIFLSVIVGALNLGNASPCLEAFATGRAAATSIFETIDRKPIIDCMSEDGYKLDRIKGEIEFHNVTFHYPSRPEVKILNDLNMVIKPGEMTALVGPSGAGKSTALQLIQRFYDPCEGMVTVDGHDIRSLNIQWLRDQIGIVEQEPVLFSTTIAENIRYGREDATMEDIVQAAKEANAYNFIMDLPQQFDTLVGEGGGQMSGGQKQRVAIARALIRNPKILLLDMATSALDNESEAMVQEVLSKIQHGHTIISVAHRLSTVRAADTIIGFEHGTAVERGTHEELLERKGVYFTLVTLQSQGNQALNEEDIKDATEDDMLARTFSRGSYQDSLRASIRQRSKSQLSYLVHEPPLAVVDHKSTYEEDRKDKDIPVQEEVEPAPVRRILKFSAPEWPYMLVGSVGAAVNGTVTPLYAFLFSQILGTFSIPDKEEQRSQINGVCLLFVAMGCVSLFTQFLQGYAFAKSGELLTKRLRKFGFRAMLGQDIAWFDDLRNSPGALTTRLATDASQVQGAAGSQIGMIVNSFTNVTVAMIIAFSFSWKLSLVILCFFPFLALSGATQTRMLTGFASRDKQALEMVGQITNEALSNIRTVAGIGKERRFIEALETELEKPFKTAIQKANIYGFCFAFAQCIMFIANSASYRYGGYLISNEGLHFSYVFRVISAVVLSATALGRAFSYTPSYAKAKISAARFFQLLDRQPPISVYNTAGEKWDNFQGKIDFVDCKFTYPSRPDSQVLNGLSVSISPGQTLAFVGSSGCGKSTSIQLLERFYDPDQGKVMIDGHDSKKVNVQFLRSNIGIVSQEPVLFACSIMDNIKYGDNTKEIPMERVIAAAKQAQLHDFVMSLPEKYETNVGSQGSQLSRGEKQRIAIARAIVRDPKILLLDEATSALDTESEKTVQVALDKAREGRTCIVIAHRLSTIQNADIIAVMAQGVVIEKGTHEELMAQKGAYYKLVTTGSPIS
From the text: as §1, §2, §3, §4

human OATP1B3 = human OATP1B3 (Homo sapiens, UniProt Q9NPD5); assay: NC-052 OATP1B3 substrate study in transiently transfected HEK293 cells; assay type: in vitro ADME
human OATP1B3, sequence (Q9NPD5 whole entry): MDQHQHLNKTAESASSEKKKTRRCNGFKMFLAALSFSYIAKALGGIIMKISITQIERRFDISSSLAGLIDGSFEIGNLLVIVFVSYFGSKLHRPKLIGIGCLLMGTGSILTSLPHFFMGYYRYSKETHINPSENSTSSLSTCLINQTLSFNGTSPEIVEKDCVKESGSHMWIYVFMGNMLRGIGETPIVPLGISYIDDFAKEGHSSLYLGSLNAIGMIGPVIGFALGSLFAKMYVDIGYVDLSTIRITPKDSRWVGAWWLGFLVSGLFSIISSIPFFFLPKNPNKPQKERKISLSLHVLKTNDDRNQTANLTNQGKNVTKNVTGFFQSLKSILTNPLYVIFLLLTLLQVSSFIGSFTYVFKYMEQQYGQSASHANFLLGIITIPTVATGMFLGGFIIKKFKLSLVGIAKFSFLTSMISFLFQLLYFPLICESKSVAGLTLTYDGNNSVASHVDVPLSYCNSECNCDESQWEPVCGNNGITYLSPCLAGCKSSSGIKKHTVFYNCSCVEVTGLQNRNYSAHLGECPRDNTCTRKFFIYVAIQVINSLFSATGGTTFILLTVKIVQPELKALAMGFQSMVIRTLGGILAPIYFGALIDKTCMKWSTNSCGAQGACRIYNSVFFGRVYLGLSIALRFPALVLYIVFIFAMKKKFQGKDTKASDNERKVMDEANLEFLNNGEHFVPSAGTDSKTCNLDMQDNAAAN
From the text: as §1, §2, §3, §4

CYP2D6 = CYP2D6 (Homo sapiens, UniProt P10635); assay: NC-012 CYP450 inhibition screening, recombinant CYP2D6; assay type: in vitro ADME; settings: 10 μM, fluorogenic substrate, recombinant human CYP
CYP2D6, sequence (P10635 whole entry): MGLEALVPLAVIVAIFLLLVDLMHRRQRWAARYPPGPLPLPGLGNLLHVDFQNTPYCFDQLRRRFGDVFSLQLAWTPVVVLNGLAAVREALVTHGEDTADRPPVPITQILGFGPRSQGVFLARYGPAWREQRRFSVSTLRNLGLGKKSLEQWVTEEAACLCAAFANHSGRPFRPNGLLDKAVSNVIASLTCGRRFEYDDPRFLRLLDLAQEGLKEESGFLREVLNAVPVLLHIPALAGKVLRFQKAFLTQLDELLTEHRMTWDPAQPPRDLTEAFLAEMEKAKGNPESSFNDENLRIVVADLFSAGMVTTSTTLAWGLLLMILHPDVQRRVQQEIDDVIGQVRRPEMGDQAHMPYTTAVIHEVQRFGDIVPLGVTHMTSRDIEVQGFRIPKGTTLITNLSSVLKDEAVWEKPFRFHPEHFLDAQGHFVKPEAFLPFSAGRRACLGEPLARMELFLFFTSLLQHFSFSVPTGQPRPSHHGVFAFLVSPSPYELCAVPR
From the text: as §1, §2, §3, §4

CYP2C19 = CYP2C19 (Homo sapiens, UniProt P33261); assay: NC-153 time-dependent inhibition in human liver microsomes, CYP2C19; assay type: in vitro ADME; settings: 0.1 to 25 μM
CYP2C19, sequence (P33261 whole entry): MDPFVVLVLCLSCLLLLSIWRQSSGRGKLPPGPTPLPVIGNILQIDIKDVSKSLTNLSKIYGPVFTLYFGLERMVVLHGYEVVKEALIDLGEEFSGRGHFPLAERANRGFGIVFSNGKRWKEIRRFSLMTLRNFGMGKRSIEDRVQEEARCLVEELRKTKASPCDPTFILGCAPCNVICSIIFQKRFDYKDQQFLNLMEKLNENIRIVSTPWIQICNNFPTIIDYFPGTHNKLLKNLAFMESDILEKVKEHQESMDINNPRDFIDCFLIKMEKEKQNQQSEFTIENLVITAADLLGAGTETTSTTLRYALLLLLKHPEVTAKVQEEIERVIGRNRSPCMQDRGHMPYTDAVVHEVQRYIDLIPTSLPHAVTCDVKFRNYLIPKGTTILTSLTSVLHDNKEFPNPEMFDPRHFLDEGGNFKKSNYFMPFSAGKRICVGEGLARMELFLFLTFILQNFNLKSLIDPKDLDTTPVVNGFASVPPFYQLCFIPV
From the text: as §1, §2, §3, §4

With `CCCCCOc1ccc(-c2ccc(-c3ccc(C(=O)N[C@H]4C[C@@H](O)[C@@H](OCC[N+](C)(C)C)NC(=O)[C@@H]5[C@@H](O)[C@@H](C)CN5C(=O)[C@H]([C@@H](C)O)NC(=O)[C@H]([C@H](O)[C@@H](O)c5ccc(O)cc5)NC(=O)[C@@H]5C[C@@H](O)CN5C(=O)[C@H]([C@@H](C)O)NC4=O)cc3)cc2)cc1` [Rezafungin] ({pTerphenylCO(4''-OnC5H11)}-[Orn(4R-OH,5R-OCH2CH2NMe3+)]T[Hyp][hTyr(3S-OH,4S-OH)]T[Pro(3S-OH,4S-Me)]; lactam 1-C) the “substrate of BCRP” value (BCRP) was “not a substrate”, the “inhibitor of probe substrate transport mediated via OCT1” value (OCT1 [1]; in vitro cell test system, NC-152) was “determined to be an inhibitor” and the pIC50 (OCT1 [1]; initial in vitro studies, read-out: IC50, OCT-1 uptake transporter (moderate inhibition)) was under 5.22. The “inhibitor of probe substrate transport mediated via OAT3” value (human OAT3) was “not”, the “deaths or serious adverse events” value ([2]; Study 2) was “no deaths or serious adverse events” and the “severe TEAE deemed by the investigator to be related to the drug” value ([2]; Study 2, one subject each) was “abdominal pain”. For the same molecule, the tolerability ([2]; once-weekly i.v. infusions, 400-mg loading dose followed by two 200-mg maintenance doses) was “generally well tolerated”, the pIC50 (CYP3A4 [3]) was under 4.60 and the “substrate of OCT1” value (OCT1 [4]) was “not a substrate”. For the same molecule, the “inhibitor of probe substrate transport mediated via MATE2-K” value (human MATE2-K) was “determined to be an inhibitor”, the half-life [5] was “around 130 h” and the chemical stability ([5]; incubated in phosphate-buffered saline, no evidence of reactive intermediate formation) was “chemically stable”. For the same molecule, the “metabolic stability in hepatocytes” value ([5]; preclinical data) was “metabolically stable”, the “metabolic stability in liver microsomes” value ([5]; preclinical data) was “metabolically stable” and the “substrate of MDR1” value (MDR1) was “not a substrate”. For the same molecule, the “time-dependent inhibitor of CYP3A4” value (CYP3A4 [6]) was “not a time-dependent inhibitor”, the “time-dependent inhibitor of CYP1A2” value (CYP1A2) was “not a time-dependent inhibitor” and the “time-dependent inhibitor of CYP2B6” value (CYP2B6) was “not a time-dependent inhibitor”. For the same molecule, the “inhibitor of probe substrate transport mediated via OAT1” value (human OAT1) was “determined to be an inhibitor”, the “inhibitor of probe substrate transport mediated via OATP1B1” value (human OATP1B1) was “determined to be an inhibitor” and the “inhibitor of probe substrate transport mediated via BSEP” value (BSEP) was “not”. The “substrate of OATP1B3” value (human OATP1B3) was “not to be a substrate”, the “uptake ratio, OATP1B3” value (human OATP1B3) was under 2 and the “inhibition of CYP2D6” value (CYP2D6) was “Minimal inhibition”. The “time-dependent inhibitor of CYP2C19” value (CYP2C19) was “not a time-dependent inhibitor”.
